Source: DBAASP
Converted amounts (≈) assume the structure as drawn.

Assays:
Test in all cases: ≥ marks a high value that may be exact or a test limit, other limits are often not marked, values filed in µg/mL are converted to µM
[1] = system: Bacillus subtilis ATCC 19659
[2] = system: Candida albicans ATCC 90028
Candida krusei ATCC 6258 = system: Candida krusei ATCC 6258
[3] = system: Candida parapsilosis ATCC 22019
[4] = system: Cryptococcus neoformans ATCC 90012
[5] = system: Escherichia coli ATCC 25922
[6] = system: Pseudomonas aeruginosa ATCC 27853
[7] = system: Staphylococcus aureus ATCC 25923
[8] = system: Acinetobacter baumannii ATCC 19606
[9] = system: Enterococcus faecalis ATCC 29212
[10] = system: Klebsiella pneumoniae ATCC 13883
Listeria ivanovii = system: Listeria ivanovii
Saccharomyces cerevisiae = system: Saccharomyces cerevisiae
[11] = system: Staphylococcus aureus ATCC BAA-44
[12] = system: Streptococcus pyogenes ATCC 19615
[13] = system: Burkholderia cepacia ATCC 25416
[14] = system: Candida glabrata ATCC 2001
[15] = system: Candida tropicalis ATCC 20115
[16] = system: Enterobacter cloacae ATCC 13047
[17] = system: Escherichia coli DH5alpha
[18] = system: Flavobacterium sp. PAMC 22217
[19] = system: Lacinutrix algicola AKS293T
[20] = system: Listeria monocytogenes ATCC 15313
[21] = system: Pseudomonas aeruginosa ATCC 15442
[22] = system: Psychrobacter sp. PAMC 21119
[23] = system: Shigella sonnei ATCC 29930
[24] = system: Staphylococcus aureus ATCC 33591
Acinetobacter baumannii = system: Acinetobacter baumannii
[25] = system: Candida albicans LABMIC 0107
[26] = system: Candida parapsilosis LABMIC 0113
[27] = system: Candida tropicalis LABMIC 0109
[28] = system: Candida tropicalis LABMIC 0112
Enterococcus faecalis = system: Enterococcus faecalis
[29] = system: Escherichia coli KpC+001812446
Escherichia coli = system: Escherichia coli
[30] = system: Klebsiella pneumoniae KpC+001825971
Klebsiella pneumoniae = system: Klebsiella pneumoniae
[31] = system: Microsporum canis LABMIC 0401
[32] = system: Papiliotrema laurentii LABMIC 0404
Pseudomonas aeruginosa = system: Pseudomonas aeruginosa
[33] = system: Staphylococcus aureus ATCC 29213
Staphylococcus aureus = system: Staphylococcus aureus
Streptococcus pyogenes = system: Streptococcus pyogenes
[34] = system: Trichophyton rubrum LABMIC 0203
[35] = system: Escherichia coli ATCC 35218
Escherichia coli ESBL = system: Escherichia coli ESBL
[36] = system: Staphylococcus aureus ATCC 43300
[37] = system: Staphylococcus epidermidis
[38] = system: Staphylococcus haemolyticus
[39] = system: Staphylococcus saprophyticus
[40] = system: Streptococcus sp. Group C
[41] = system: Streptococcus sp. Group G

With `CC[C@H](C)[C@H](NC(=O)[C@H](C)NC(=O)CNC(=O)[C@H](Cc1ccccc1)NC(=O)[C@@H](NC(=O)[C@@H](N)CC(=O)O)[C@@H](C)CC)C(=O)N[C@@H](Cc1c[nH]c2ccccc12)C(=O)N1CCC[C@H]1C(=O)N[C@@H](CC(C)C)C(=O)N[C@@H](C)C(=O)N[C@@H](CC(C)C)C(=O)NCC(=O)N[C@@H](C)C(=O)N[C@@H](CC(C)C)C(=O)N[C@@H](CCCCN)C(=O)N[C@@H](CC(N)=O)C(=O)N[C@@H](CC(C)C)C(=O)N[C@H](C(=O)N[C@@H](CCCCN)C(N)=O)[C@@H](C)CC` [DIFGAIWPLALGALKNLIK] the MIC [1] was 4 µM (≈ 8.21 µg/mL), the MIC [2] was 16 µM (≈ 32.8 µg/mL) and the MIC (Candida krusei ATCC 6258) was 16 µM (≈ 32.8 µg/mL). The MIC [3] was 16 µM (≈ 32.8 µg/mL), the MIC [4] was 16 µM (≈ 32.8 µg/mL) and the MIC [5] was > 128 µM. For the same compound, the MIC [6] was > 128 µM and the MIC [7] was 8 µM (≈ 16.4 µg/mL).

With `CC[C@H](C)[C@H](NC(=O)[C@H](CCCN=C(N)N)NC(=O)[C@H](CCCN=C(N)N)NC(=O)[C@H](CC(C)C)NC(=O)[C@H](Cc1ccccc1)NC(=O)[C@H](Cc1ccccc1)NC(=O)[C@@H](N)Cc1ccccc1)C(=O)N[C@@H](Cc1ccccc1)C(=O)O` [FFFLRRIF] the MIC [8] was > 100 µM, the MIC [2] was ≥ 100 µM and the MIC [3] was ≥ 100 µM. For the same compound, the MIC [9] was > 100 µM, the MIC [5] was > 100 µM and the MIC [10] was ≥ 100 µM. The MIC (Listeria ivanovii) was ≥ 100 µM, the MIC [6] was > 100 µM and the MIC (Saccharomyces cerevisiae) was ≥ 100 µM. For the same compound, the MIC [7] was 100 µM (≈ 115 µg/mL), the MIC [11] was ≥ 100 µM and the MIC [12] was ≥ 50 µM.

For `CC[C@H](C)[C@H](NC(=O)CNC(=O)[C@H](CCCN=C(N)N)NC(=O)[C@H](Cc1ccccc1)NC(=O)[C@H](CC(C)C)NC(=O)[C@H](Cc1cnc[nH]1)NC(=O)CNC(=O)[C@H](Cc1ccccc1)NC(=O)[C@@H](N)Cc1ccccc1)C(=O)N[C@H](C(=O)N[C@@H](CC(N)=O)C(=O)N[C@H](C(=O)NCC(=O)N[C@@H](CCCCN)C(=O)N[C@@H](Cc1cnc[nH]1)C(=O)N[C@H](C(=O)N[C@@H](Cc1cnc[nH]1)C(=O)NCC(=O)N[C@@H](CC(C)C)C(=O)N[C@@H](CC(C)C)C(=O)N[C@@H](CO)C(=O)NCC(N)=O)[C@@H](C)CC)C(C)C)[C@@H](C)CC` [FFGHLFRGIINVGKHIHGLLSG], the MIC [13] was ≥ 50 µM, the MIC [14] was ≥ 50 µM and the MIC [15] was 5 µM (≈ 12.1 µg/mL). It also gave an MIC [16] of 25 µM (≈ 60.5 µg/mL), an MIC [9] of 25 µM (≈ 60.5 µg/mL) and an MIC [17] of 5 µM (≈ 12.1 µg/mL). For the same compound, the MIC [18] was 1.5 µM (≈ 3.63 µg/mL), the MIC [19] was 1.25 µM (≈ 3.02 µg/mL) and the MIC [20] was 5 µM (≈ 12.1 µg/mL). The MIC [21] was ≥ 50 µM, the MIC [22] was 1.25 µM (≈ 3.02 µg/mL) and the MIC [23] was 5 µM (≈ 12.1 µg/mL). It also gave an MIC [24] of 5 µM (≈ 12.1 µg/mL) and an MIC [12] of 2.5 µM (≈ 6.05 µg/mL).

`CC[C@H](C)[C@H](NC(=O)[C@H](CCCCN)NC(=O)[C@H](CCCCN)NC(=O)[C@H](CC(C)C)NC(=O)[C@H](CCCN=C(N)N)NC(=O)[C@H](CCCCN)NC(=O)[C@@H](N)CCCCN)C(=O)N[C@@H](Cc1ccccc1)C(=O)N[C@@H](CCCCN)C(=O)N[C@@H](CCCCN)C(=O)N1CCC[C@H]1C(=O)N[C@@H](CCSC)C(=O)N[C@H](C(=O)N[C@H](C(=O)NCC(=O)N[C@H](C(=O)N[C@H](C(=O)N[C@H](C(=O)N1CCC[C@H]1C(=O)N[C@@H](Cc1ccccc1)C(N)=O)[C@@H](C)CC)[C@@H](C)O)C(C)C)[C@@H](C)CC)C(C)C` [KKRLKKIFKKPMVIGVTIPF] was tested, and the MIC (Acinetobacter baumannii) was 1.69 µM (≈ 4 µg/mL), the MIC [25] was 9.99 µM (≈ 23.7 µg/mL) and the MIC (Candida krusei ATCC 6258) was 5 µM (≈ 11.8 µg/mL). For the same compound, the MIC [3] was ≥ 40 µM, the MIC [26] was 5 µM (≈ 11.8 µg/mL) and the MIC [27] was 9.99 µM (≈ 23.7 µg/mL). For the same compound, the MIC [28] was 5 µM (≈ 11.8 µg/mL), the MIC [9] was > 54 µM and the MIC (Enterococcus faecalis) was ≥ 54 µM. For the same compound, the MIC [29] was 0.843 µM (≈ 2 µg/mL), the MIC (Escherichia coli) was 3.37 µM (≈ 8 µg/mL) and the MIC [10] was 0.843 µM (≈ 2 µg/mL). For the same compound, the MIC [30] was 3.37 µM (≈ 8 µg/mL), the MIC (Klebsiella pneumoniae) was 3.37 µM (≈ 8 µg/mL) and the MIC [31] was ≥ 40 µM. It also gave an MIC [32] of 5 µM (≈ 11.8 µg/mL), an MIC [6] of 27 µM (≈ 64 µg/mL) and an MIC (Pseudomonas aeruginosa) of 27 µM (≈ 64 µg/mL). For the same compound, the MIC [7] was 6.75 µM (≈ 16 µg/mL), the MIC [33] was > 54 µM and the MIC (Staphylococcus aureus) was > 54 µM. For the same compound, the MIC (Streptococcus pyogenes) was 3.37 µM (≈ 8 µg/mL) and the MIC [34] was ≥ 40 µM.

For `NC(=O)[C@H](Cc1c[nH]c2ccccc12)NC(=O)[C@H](Cc1c[nH]c2ccccc12)NC(=O)[C@H](Cc1c[nH]c2ccccc12)NC(=O)[C@H](Cc1c[nH]c2ccccc12)NC(=O)[C@@H]1CCCN1C(=O)[C@H](CCCN=C(N)N)NC(=O)[C@@H]1CCCN1C(=O)[C@H](CCCN=C(N)N)NC(=O)[C@@H]1CCCN1C(=O)[C@H](CCCN=C(N)N)NC(=O)[C@@H]1CCCN1C(=O)[C@H](CCCN=C(N)N)NC(=O)[C@@H](N)CCCN=C(N)N` [RRPRPRPRPWWWW], the MIC [5] was 8.28 µM (≈ 16 µg/mL), the MIC [35] was 8.28 µM (≈ 16 µg/mL) and the MIC (Escherichia coli ESBL) was 16.6 µM (≈ 32 µg/mL). For the same compound, the MIC (Escherichia coli) was 8.28 µM (≈ 16 µg/mL), the MIC [6] was 33.1 µM (≈ 64 µg/mL) and the MIC (Pseudomonas aeruginosa) was 66.2 µM (≈ 128 µg/mL). The MIC [33] was 8.28 µM (≈ 16 µg/mL), the MIC [36] was 8.28 µM (≈ 16 µg/mL) and the MIC (Staphylococcus aureus) was 11.7 µM (≈ 22.6 µg/mL). The MIC [37] was 4.14 µM (≈ 8 µg/mL), the MIC [38] was 4.14 µM (≈ 8 µg/mL) and the MIC [39] was ≥ 33.1 µM. The MIC [12] was 8.28 µM (≈ 16 µg/mL), the MIC (Streptococcus pyogenes) was 11.7 µM (≈ 22.6 µg/mL) and the MIC [40] was 4.14 µM (≈ 8 µg/mL). It also gave an MIC [41] of 11.7 µM (≈ 22.6 µg/mL).
